Among the test systems are 786-0 renal; HCC-2998 colon; HOP-92 NSCLC; HS 578T breast; MDA-MB-231 breast; MDA-MB-435; MOLT-4 leukemia; NCI-H460 lung; NCI/ADR-RES ovarian; OVCAR-4 ovarian; OVCAR-8 ovarian; RXF 393 renal; SF-268 CNS; SF-295 CNS; SNB-75 CNS; SR leukemia; SW-620 colon; UACC-62 melanoma; UO-31 renal; RPMI-8226 leukemia.
What all share (assay): NCI-60 cell line screen, 48 h

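1) Cells in 96-well plates. 2) Compound, 48 h, 5 concentrations. 3) Linear interpolation between surrounding doses. 4) Unreached endpoint = highest concentration. Definition used: TGI = concentration required for complete inhibition of growth.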

Experimental findings from PubChem BioAssay (NCI) are described below.

As for `O=C1[C@@H]2[C@@H](c3ccccc3)[C@]2(Cl)C(=O)[C@H]2[C@H](c3ccccc3)[C@@]12Cl`, the TGI in the experiment with 786-0 renal, in the experiment on HCC-2998 colon, in the experiment on HOP-92 NSCLC, with HS 578T breast, with MDA-MB-231 breast and in the experiment with MDA-MB-435 was > 100 µM throughout. Besides, the TGI in the experiment with MOLT-4 leukemia, with NCI-H460 lung, in the experiment with NCI/ADR-RES ovarian, in the experiment with OVCAR-4 ovarian, in the experiment with OVCAR-8 ovarian and in the experiment on RXF 393 renal was > 100 µM each time. For the same compound, the TGI in the experiment with SF-268 CNS, in the experiment with SF-295 CNS, in the experiment on SNB-75 CNS, in the experiment with SR leukemia, with SW-620 colon and in the experiment with UACC-62 melanoma was > 100 µM throughout. Moreover, the TGI in the experiment on UO-31 renal was > 100 µM.
Take `CN(C)c1ccccc1CN1CCCN(Cc2ccccc2N(C)C)C1c1ccncc1`: the TGI is 32.2 µM in the experiment on 786-0 renal; 14.8 µM in the experiment with HOP-92 NSCLC; 41.8 µM in the experiment on HS 578T breast; 51.5 µM in the experiment with MDA-MB-231 breast; 20.2 µM in the experiment with MDA-MB-435; 43.6 µM in the experiment with MOLT-4 leukemia. Moreover, the TGI in the experiment with NCI-H460 lung is 28.5 µM; in the experiment on NCI/ADR-RES ovarian, 58 µM; in the experiment on OVCAR-4 ovarian, 33 µM; in the experiment with OVCAR-8 ovarian it was 29 µM; in the experiment with RPMI-8226 leukemia it was 32.1 µM; in the experiment with RXF 393 renal, 22.4 µM. Also, the TGI in the experiment on SF-268 CNS came out at 37.9 µM; with SF-295 CNS, 29.8 µM; in the experiment on SNB-75 CNS it was 32.1 µM; in the experiment with SR leukemia, 21.7 µM; in the experiment on SW-620 colon, 42.2 µM; in the experiment on UACC-62 melanoma it was 27.6 µM. The TGI in the experiment on UO-31 renal is 13.9 µM.
Take `c1csc(-c2cc(-c3cccs3)c(-c3cccs3)s2)c1`: the TGI in the experiment on 786-0 renal, in the experiment with HCC-2998 colon, with HOP-92 NSCLC, in the experiment with HS 578T breast, with MDA-MB-231 breast and in the experiment with MDA-MB-435 was > 100 µM throughout. For the same compound, the TGI in the experiment on MOLT-4 leukemia, with NCI-H460 lung, with NCI/ADR-RES ovarian, with OVCAR-4 ovarian, with OVCAR-8 ovarian and in the experiment with RXF 393 renal was > 100 µM in each case. Moreover, the TGI with SF-268 CNS, with SF-295 CNS, in the experiment with SNB-75 CNS, with SR leukemia, in the experiment on SW-620 colon and in the experiment on UACC-62 melanoma was > 100 µM throughout. In the experiment on UO-31 renal, the TGI was > 100 µM.
Turning to `Cc1cc(C)c2c(n1)S(=O)(=O)N(CCCN1CCN(c3cccc(C(F)(F)F)c3)CC1)c1c-2nn(C)c1C`, the TGI with 786-0 renal, with HCC-2998 colon, in the experiment on HOP-92 NSCLC, in the experiment with HS 578T breast, with MDA-MB-231 breast and with MDA-MB-435 was > 100 µM throughout. The TGI in the experiment with MOLT-4 leukemia, in the experiment on NCI-H460 lung, in the experiment on NCI/ADR-RES ovarian, with OVCAR-4 ovarian, in the experiment on OVCAR-8 ovarian and with RXF 393 renal was > 100 µM throughout. Moreover, the TGI with SF-268 CNS was > 100 µM; in the experiment with SF-295 CNS, > 100 µM; in the experiment on SNB-75 CNS, > 100 µM; in the experiment with SR leukemia it was 62 µM; in the experiment on SW-620 colon, > 100 µM; in the experiment on UACC-62 melanoma it was > 100 µM. For the same compound, the TGI in the experiment on UO-31 renal is > 100 µM.
Take `CC(C)[Si](OC1=CCC[C@H]2NC(=O)[C@@H](Cc3ccccc3)[C@@]12C)(C(C)C)C(C)C`: the TGI in the experiment on 786-0 renal worked out at 14.9 µM; in the experiment on HCC-2998 colon it was 4.42 µM; with HOP-92 NSCLC, 6.67 µM; in the experiment on HS 578T breast, 18.5 µM; in the experiment on MDA-MB-231 breast, 26.5 µM; in the experiment on MDA-MB-435, 13.4 µM. For the same compound, the TGI in the experiment with MOLT-4 leukemia was 14.7 µM; in the experiment with NCI-H460 lung, 12.4 µM; in the experiment on NCI/ADR-RES ovarian, 21.7 µM; with OVCAR-4 ovarian, 19.7 µM; with OVCAR-8 ovarian, 24.8 µM; in the experiment with RXF 393 renal, 15 µM. In addition, the TGI in the experiment on SF-268 CNS amounted to 29.1 µM; in the experiment with SF-295 CNS, 17.2 µM; with SNB-75 CNS, 31.2 µM; in the experiment with SR leukemia, 7.19 µM; with SW-620 colon it was 9.16 µM; in the experiment on UACC-62 melanoma, 22.4 µM. This compound also showed a TGI with UO-31 renal of 22.3 µM.
With `CC(C)(C)c1cc(C2=NN(c3ccccc3)C(c3ccccc3)C2)cc(C(C)(C)C)c1O` (stereo not drawn), the TGI in the experiment with 786-0 renal, with HOP-92 NSCLC, with HS 578T breast, with MDA-MB-231 breast, in the experiment with MDA-MB-435 and in the experiment with MOLT-4 leukemia was > 100 µM throughout. Besides, the TGI in the experiment with NCI-H460 lung, in the experiment with NCI/ADR-RES ovarian, in the experiment on OVCAR-4 ovarian, in the experiment on OVCAR-8 ovarian, in the experiment with RPMI-8226 leukemia and in the experiment on RXF 393 renal was > 100 µM throughout. The TGI with SF-268 CNS, with SF-295 CNS, with SNB-75 CNS, in the experiment on SR leukemia, in the experiment with SW-620 colon and with UACC-62 melanoma was > 100 µM each time. Besides, the TGI in the experiment with UO-31 renal was > 100 µM.
As for `CCOC(=O)c1ccc(C(=O)/C(C(C)=O)=C2\CCCN2C)n1C`, the TGI in the experiment on 786-0 renal, in the experiment with HCC-2998 colon, in the experiment on HS 578T breast, with MDA-MB-231 breast, in the experiment on MDA-MB-435 and with MOLT-4 leukemia was > 100 µM in each case. Moreover, the TGI with NCI-H460 lung, in the experiment on NCI/ADR-RES ovarian, with OVCAR-4 ovarian, in the experiment on OVCAR-8 ovarian, with RPMI-8226 leukemia and in the experiment with RXF 393 renal was > 100 µM in each case. Moreover, the TGI in the experiment with SF-268 CNS is > 100 µM; in the experiment on SF-295 CNS it was > 100 µM; in the experiment with SNB-75 CNS, 66.6 µM; with SR leukemia, 98.9 µM; with SW-620 colon it was > 100 µM; with UACC-62 melanoma, > 100 µM. The TGI with UO-31 renal was > 100 µM.
